From paper PMC3960879 (Biology, 2013)

Tests used:
F17aG lectin domain = F17aG lectin domain (Escherichia coli, UniProt Q99003); conditions: CFG glycan array version 2; F17G at 200 µg/mL; SEM in parentheses
Procedure: (§1) A microarray presenting 264 different glycans (mammalian printed array version 2) was used to evaluate if the F17G variant lectin domains differ in the range of glycan receptors that they recognize, thereby establishing tropism. The microarray was set up within the Consortium for Functional Glycomics (CFG) ([20], and supplemental data). Binding of F17G (200 µg/mL) was detected using anti-F17G polyclonal rabbit IgG (10 µg/mL), followed by fluorescently labelled goat anti-rabbit polyclonal antibodies (IgG-488, 5 µg/mL).
(§2) A microarray presenting 264 different glycans (mammalian printed array version 2 from the CFG, experiment 400) was used to evaluate whether the F17G variant lectin domains differ in the range of glycan receptors that they can recognize, thereby establishing strain-dependent tropism. […] The glycan array screening has been repeated for F17aG only on printed array version 4.1 (experiment 2053) (Figure 1).
(§3) Printed array version 2 at the Consortium for Functional Glycomics was used for glycan array screening of the variant F17G receptor binding domains. Slides were printed, with six replicates for each glycan, using glycan spotting concentrations of 100 μM, at the Consortium Carbohydrate Synthesis/Protein Expression Core D located at the Scripps Research Institute onto Schott Nexterion H slides (Schott Cat. No. 1070936B). Slide conditioning: preprinted slides were soaked in deionized water for 5 minutes at room temperature and dried under a stream of nitrogen. TSM buffer (20 mM Tris-HCl, pH 7.4, or MOPS 20 mM; 150 mM NaCl; 2 mM CaCl2, 2 mM MgCl2) was used as wash buffer (TSM buffer + 0.05% Tween 20) or binding buffer (TSM buffer + 0.05% Tween 20 + 1% BSA). (1) F17G was diluted to 200 μg/mL (Figure 1) in TSM binding buffer. (2) 50 μL of F17G was applied to the printed surface and coverslipped. (3) The slide was incubated, protected from light, in a humidified chamber for 1 hour at RT. (4) The slide was washed once in TSM wash buffer. 50 μL of the anti-F17G (10 μg/mL) polyclonal rabbit IgG were applied, coverslipped and incubated for 1 h at RT. (5) The slide was washed once in TSM wash buffer. Fifty μL of fluorescently labelled secondary goat anti-rabbit polyclonal antibodies (IgG-488, 5 µg/mL) were applied, coverslipped and incubated for 1 h at RT. (6) Slide was removed, followed by the coverslip, and washed for 10 s each in TSM wash buffer, TSM wash buffer lacking Tween 20, and deionized water. The slide was dried under a stream of nitrogen. (7) The binding image was read in a Perkin Elmer Microscanarray XL4000 scanner and tiff file of image stored. (8) Image analysis was performed using Imagene (V.6) image analysis software. (9) Raw data results files were generated in Excel format and uploaded to the Consortium database as .dat files. (10) Imagene data was uploaded to the database as .txt files.

F17bG lectin domain = F17bG lectin domain (Escherichia coli, UniProt Q47200); conditions: CFG glycan array version 2; F17G at 200 µg/mL; SEM in parentheses
F17bG lectin domain, sequence (Q47200 23-199): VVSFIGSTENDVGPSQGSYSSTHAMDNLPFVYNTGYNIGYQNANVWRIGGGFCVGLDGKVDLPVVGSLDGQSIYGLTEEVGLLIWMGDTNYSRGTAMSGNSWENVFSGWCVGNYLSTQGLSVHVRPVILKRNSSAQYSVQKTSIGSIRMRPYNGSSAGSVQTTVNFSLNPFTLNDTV
Procedure: as §1, §2, §3

F17dG lectin domain = F17dG lectin domain (Escherichia coli, UniProt Q47199); conditions: CFG glycan array version 2; F17G at 200 µg/mL; SEM in parentheses
F17dG lectin domain, sequence (Q47199 23-199): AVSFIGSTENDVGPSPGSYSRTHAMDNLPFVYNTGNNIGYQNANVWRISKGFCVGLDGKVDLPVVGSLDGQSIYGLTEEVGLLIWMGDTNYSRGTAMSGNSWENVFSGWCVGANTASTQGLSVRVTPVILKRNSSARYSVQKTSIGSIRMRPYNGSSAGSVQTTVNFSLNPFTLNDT
Procedure: as §1, §2, §3

F17eG lectin domain = test: CFG mammalian printed glycan array version 2 (experiment 400), F17eG; assay type: binding, Escherichia coli; conditions: CFG glycan array version 2; F17G at 200 µg/mL; SEM in parentheses
Text: (§4) The slide was dried under a stream of nitrogen.

F17fG lectin domain = test: CFG mammalian printed glycan array version 2 (experiment 400), F17fG; assay type: binding, Escherichia coli; conditions: CFG glycan array version 2; F17G at 200 µg/mL; SEM in parentheses
Text: as §4

[1] = molecular target: F17fG receptor-binding domain (Escherichia coli, UniProt Q9RH91); test: Surface plasmon resonance steady-state affinity, immobilized F17fG; conditions: SPR steady state, 25 °C, pH 7.4; read-out: Affinity range (Kd class), F17fG
F17fG receptor-binding domain, sequence (Q9RH91 23-198): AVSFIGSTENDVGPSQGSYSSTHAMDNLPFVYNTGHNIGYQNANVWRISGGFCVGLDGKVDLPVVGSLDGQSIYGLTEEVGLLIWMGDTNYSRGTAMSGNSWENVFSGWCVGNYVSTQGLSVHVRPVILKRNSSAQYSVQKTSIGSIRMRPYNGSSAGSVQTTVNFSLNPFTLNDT
Procedure: The affinity profiles were determined by surface plasmon resonance (SPR) measurements using a BiaCore 3000 instrument (GE Healthcare). […] The proteins were covalently immobilized on CM5 sensor chips (Biacore AB) to an average density of 2000 RU (resonance units in pg/mm^2). On each chip, one flow cell was coated with a camel single domain antibody for use as a reference cell. The other three flow cells (Fc2, Fc3 and Fc4) were coated with three different F17G variants. Carbohydrate concentrations ranging from 10 µM to 10 mM in running buffer (20 mM Hepes, pH 7.4; 150 mM NaCl; 3 mM EDTA and 0.005% surfactant Tween 20) were incubated for one minute on all flow cells simultaneously, at 25 °C and at a flow rate of 30 µL/min. Complete dissociation of the carbohydrates in running buffer was verified before starting a new binding cycle. All binding cycles were performed in duplicate, including a zero concentration cycle (injection of pure running buffer). All analysis was done using the BIAeval software. In each case the equilibrium resonance signal from the reference cell was subtracted from that of the various F17G flow cells (2-1, 3-1, 4-1). A Langmuir binding isotherm with a 1:1 stoichiometry was fitted to the data, from which the equilibrium dissociation constants, Kd, were obtained.

F17aG lectin domain, sequence (Q99003 23-199): as the sequence (Q47199 23-199) above, with P16L, N33D, G35R, N37K, R47H, N90K counted along it

Compound | Relative Fluorescence Units (RFU), averaged over six replicates, F17aG (F17aG lectin domain) | Relative Fluorescence Units (RFU), averaged over six replicates, F17bG (F17bG lectin domain) | Relative Fluorescence Units (RFU), averaged over six replicates, F17dG (F17dG lectin domain) | Relative Fluorescence Units (RFU), averaged over six replicates, F17eG (F17eG lectin domain) | Relative Fluorescence Units (RFU), averaged over six replicates, F17fG (F17fG lectin domain) | Kd [1]
CC(=O)N[C@H]1[C@H](O[C@H]2[C@@H](O)[C@@H](CO)O[C@H](OCCCN)[C@@H]2NC(C)=O)O[C@H](CO)[C@@H](O)[C@@H]1O [GlcNAcβ1,3GalNAcα-Sp8] | 25,971 (3,174) RFU | 15,182 (2,925) RFU | 6,635 (2,735) RFU | 33,330 (7,321) RFU | 10,999 (2,929) RFU | –
Galβ1,4GlcNAcβ1,3Galβ1,4Glcβ-Sp0 | 391 (24) RFU | 1,090 (262) RFU | 919 (375) RFU | 3,942 (857) RFU | 663 (146) RFU | –
GlcNAcβ1,2Galβ1,3GalNAcα-Sp8 | 5,082 (4,924) RFU | 1,016 (239) RFU | 75 (35) RFU | 305 (148) RFU | 563 (125) RFU | –
GlcNAcβ1,3Galβ1,4Glcβ-Sp0 | 57,013 (5,191) RFU | 13,149 (2,286) RFU | 29,181 (3,281) RFU | 54,005 (5,715) RFU | 26,336 (7,255) RFU | –
Galβ1,4GlcNAcβ-Sp0 | 1,703 (1,070) RFU | 1,974 (289) RFU | 249 (94) RFU | 19,659 (4,594) RFU | 1,279 (106) RFU | –
GlcNAcβ1,3Galβ1,4GlcNAcβ1,3Galβ1,4GlcNAcβ-Sp0 | 10,917 (811) RFU | 7,563 (2,744) RFU | 3,599 (772) RFU | 43,425 (4,065) RFU | 4,334 (856) RFU | –
Neu5Acα2,3Galβ1,3(Neu5Acα2,6)GlcNAcβ1,3Gal β1,4Glc | – | – | – | – | – | > 100 mM
GlcNAcβ1,4Galβ1,4GlcNAcβ-Sp8 | 12,499 (1,921) RFU | 13,001 (2,039) RFU | 1,056 (190) RFU | 39,794 (6,245) RFU | 7,176 (2,338) RFU | –
GlcNAcβ1,3Galβ1,3GalNAcα-Sp8 | 7,713 (866) RFU | 10,655 (880) RFU | 3,999 (1,481) RFU | 47,984 (3,178) RFU | 31,661 (2,807) RFU | –
GlcNAcβ1,6Galβ1,4GlcNAcβ-Sp8 | 9,029 (1,096) RFU | 5,372 (746) RFU | 5,119 (1,633) RFU | 40,973 (6,555) RFU | 2,269 (561) RFU | –
